24 molecules from US10201546B2, “Quinolinyl modulators of RORγt” (Janssen Pharmaceutica NV, priority 2013, dated 2019) can be followed below.

Assay [1] relates to IL-17 production by CD4+ T cells under conditions which favor Th17 differentiation. The experiment in a line: Human Th17 assay (IL-17 production by CD4 T cells). The class given is cell-based. Conditions: Homo sapiens.
Procedure: The human Th17 assay tests the effect of RORγt modulatory compounds on IL-17 production by CD4 T cells under conditions which favor Th17 differentiation. Total CD4^+ T cells were isolated from the peripheral blood mononuclear cells (PBMC) of healthy donors using a CD4^+ T cell isolation kit II, following the manufacturer's instructions (Miltenyi Biotec). […] 50 μL of compound at titrated concentrations in DMSO were added into each well at final DMSO concentration at 0.2%. Cells were incubated for 1 hour, then 50 μL of Th17 cell differentiation medium was added to each well. The final concentrations of antibodies and cytokines (R&D Systems) in differentiation medium were: 3×10^6/mL anti-CD3/CD28 beads (prepared using human T cell activation/expansion kit, Miltenyi Biotec), 10 μg/mL anti-IL4, 10 μg/mL anti-IFNγ, 10 ng/mL IL113, 10 ng/mL IL23, 50 ng/mL IL6, 3 ng/mL TGFβ and 20 U/mL IL2. Cells were cultured at 37° C. and 5% CO2 for 3 days. Supernatants were collected and the accumulated IL-17 in culture was measured by using MULTI-SPOT® Cytokine Plate following manufacture's instruction (Meso Scale Discovery). The plate was read using Sector Imager 6000, and IL-17 concentration was extrapolated from the standard curve. The IC50s were determined by GraphPad.
Assay [2] concerns the target human RORγt LBD fused to the DNA binding domain of the GAL4 protein (Homo sapiens (Human), UniProt P51449). In words: RORγt (LBD) reporter assay in HEK293T cells. The class given is cell-based. Further details: RORγt (LBD) Reporter Assay, % inhibition: dose or concentration left out as unconfirmed. The settings on record: for inhibition at 6 µM: HEK-293T, read-out: RORγt (LBD) Reporter Assay, % inhibition @ 6 μM, @ 6 μM. A general note: Reporter assays use an easily measured gene product as a stand-in for the process of interest.

Assay [3] deals with human RORγt ligand binding domain (RORγt LBD) (Homo sapiens (Human), UniProt P51449). In words: RORγt ThermoFluor assay (thermal shift, binding affinity Kd). On the technique in general: In DSF a fluorescence change marks the thermal transition of the protein.
Chain of human RORγt ligand binding domain (RORγt LBD) (P51449 other isoform, or with tags, fused parts or gaps): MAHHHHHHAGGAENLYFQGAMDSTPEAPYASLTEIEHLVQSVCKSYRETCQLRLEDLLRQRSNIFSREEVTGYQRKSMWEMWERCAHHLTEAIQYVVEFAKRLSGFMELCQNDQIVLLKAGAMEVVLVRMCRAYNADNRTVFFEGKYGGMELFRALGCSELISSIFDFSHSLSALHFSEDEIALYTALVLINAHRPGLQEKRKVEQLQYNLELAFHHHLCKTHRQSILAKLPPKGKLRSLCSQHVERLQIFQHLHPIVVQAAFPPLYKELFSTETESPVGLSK
[4] abbreviates: read-out: ThermoFluor Assay, Kd.
Setting [5] is: read-out: ThermoFluor ® Assay, Kd.

The IC50 is the concentration that gives 50% inhibition. As usually defined, the inhibition is the drop in the measured response relative to a control, in per cent. As usually defined, the Kd is the free concentration of one partner at which half of the binding sites on the other are occupied at equilibrium, for simple one-to-one binding.

Where a name gives a salt, the structure may show the parent alone. Read-outs that look alike come from different tables or passages of the source. Where only a bound is given, the exact number is not on record here.

Chain of human RORγt LBD fused to the DNA binding domain of the GAL4 protein (P51449 258-518): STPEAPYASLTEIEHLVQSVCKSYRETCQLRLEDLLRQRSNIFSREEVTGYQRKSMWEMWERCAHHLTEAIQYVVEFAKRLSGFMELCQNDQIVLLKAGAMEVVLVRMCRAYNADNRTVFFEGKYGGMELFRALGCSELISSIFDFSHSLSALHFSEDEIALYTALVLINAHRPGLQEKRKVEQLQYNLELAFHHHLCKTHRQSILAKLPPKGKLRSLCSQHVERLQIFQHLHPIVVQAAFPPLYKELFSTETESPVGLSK

Turning to `COc1nc2ccc(C(O)(c3ccccc3)C3CCN(C(C)=O)CC3)cc2c(Cl)c1C1CCOCC1` (single isomer, unassigned) [Example 7b, 1-(4-((4-Chloro-2-methoxy-3-(tetrahydro-2H-pyran-4-yl)quinolin-6-yl)(hydroxy)(phenyl)methyl)piperidin-1-yl)ethanone], the IC50 in assay [1] stood at 0.21 µM.
For `COc1nc2ccc(C(O)(c3sc(C)nc3C)c3cnnn3C)cc2c(Cl)c1C` (single isomer, unassigned) [Example 13c, (4-Chloro-2-methoxy-3-methylquinolin-6-yl)(2,4-dimethylthiazol-5-yl)(1-methyl-1H-1,2,3-triazol-5-yl)methanol], the IC50 in assay [1] was 0.065 µM.
Take `COc1nc2ccc(C(O)(c3ccc(C)nc3C)c3cnnn3C)cc2c(Cl)c1OCCN(C)C` (single isomer, unassigned) [Example 74b, {4-Chloro-3-[2-(dimethylamino)ethoxy]-2-methoxyquinolin-6-yl}(2,6-dimethylpyridin-3-yl)(1-methyl-1H-1,2,3-triazol-5-yl)methanol]: in assay [2], the IC50 was more than 6 µM and the inhibition at 6 µM is -9%. For the same molecule, the Kd in assay [3] (setting [4]) is 4.9 µM.
On to `COc1nc2ccc(C(O)(c3ccc(C(F)(F)F)nc3)c3cncn3C)cc2c(Cl)c1OCc1cccnc1` (single isomer, unassigned) [Example 76b, [4-Chloro-2-methoxy-3-(pyridin-3-ylmethoxy)quinolin-6-yl](1-methyl-1H-imidazol-5-yl)[6-(trifluoromethyl)pyridin-3-yl]methanol], for which, in assay [2], the IC50 is more than 6 µM and the “RORγt (LBD) Reporter Assay, % inhibition @ 6 μM” value is recorded as −17%. For the same molecule, the equilibrium dissociation constant (Kd) in assay [3] (setting [4]) stood at 1.2 µM.
In the same order, the values of `COc1nc2ccc(C(O)(c3ccc(C(F)(F)F)nc3)c3cncn3C)cc2c(Cl)c1OCc1cccnc1` (single isomer, unassigned) [Example 76c, [4-Chloro-2-methoxy-3-(pyridin-3-ylmethoxy)quinolin-6-yl](1-methyl-1H-imidazol-5-yl)[6-(trifluoromethyl)pyridin-3-yl]methanol] are more than 6 µM, −35% and 0.11 µM.
As for `Cc1nc(C)c(C(O)(c2ccc3nc(N4CCC4)c(OC(C)C)c(Cl)c3c2)c2cnnn2C)s1` (single isomer, unassigned) [Example 82c, [2-Azetidin-1-yl-4-chloro-3-(1-methylethoxy)quinolin-6-yl](2,4-dimethyl-1,3-thiazol-5-yl)(1-methyl-1H-1,2,3-triazol-5-yl)methanol], half-maximal inhibition in assay [1] (IC50) was put at 0.0012 µM.
Consider `COc1nc2ccc(C(O)(c3ccccc3)C3CCN(C(C)=O)CC3)cc2c(Cl)c1OC(C)C` (single isomer, unassigned) [Example 84b, (1-Acetylpiperidin-4-yl)[4-chloro-2-methoxy-3-(1-methylethoxy)quinolin-6-yl]phenylmethanol], for which the IC50 in assay [1] was found to be 0.0054 µM.
`COc1nc2ccc(C(O)(c3ccc(Cl)cc3)c3cncn3C)cc2c(Cl)c1OCC(F)(F)F` (single isomer, unassigned) [Example 86c, [4-Chloro-2-methoxy-3-(2,2,2-trifluoroethoxy)quinolin-6-yl](4-chlorophenyl)(1-methyl-1H-imidazol-5-yl)methanol] yielded an IC50 in assay [1] of 0.021 µM.
The molecule `Cn1cncc1C(O)(c1ccc(C(F)(F)F)nc1)c1ccc2nc(N3CCC3)c(OCC3CC3)c(Cl)c2c1` (single isomer, unassigned) [Example 87c, [2-Azetidin-1-yl-4-chloro-3-(cyclopropylmethoxy)quinolin-6-yl](1-methyl-1H-imidazol-5-yl)[6-(trifluoromethyl)pyridin-3-yl]methanol] returned an IC50 in assay [1] of 0.12 µM.
With `COc1nc2ccc(C(O)(c3ccc(C(F)(F)F)nc3)c3cncn3C)cc2c(Cl)c1OCC1CC1` (single isomer, unassigned) [Example 88c, [4-Chloro-3-(cyclopropylmethoxy)-2-methoxyquinolin-6-yl](1-methyl-1H-imidazol-5-yl)[6-(trifluoromethyl)pyridin-3-yl]methanol], in assay [1], half-maximal inhibition (IC50) required 0.31 µM.
Consider `Cc1ccc(C(O)(c2ccc3nc(Cl)c(CC(F)(F)F)c(N4CCC4)c3c2)c2cnnn2C)c(C)n1` (single isomer, unassigned) [Example 238b, [4-(Azetidin-1-yl)-2-chloro-3-(2,2,2-trifluoroethyl)-6-quinolyl]-(2,6-dimethyl-3-pyridyl)-(3-methyltriazol-4-yl)methanol], for which, in assay [2], the IC50 was more than 6 µM and the “RORγt (LBD) Reporter Assay, % inhibition” value was 9%. For the same molecule, in assay [3] (setting [5]), the Kd stood at 13 µM.
Take `COc1nc2ccc(C(O)(c3ccccc3)C3CCN(C(C)=O)CC3)cc2c(Cl)c1CC1CCOCC1` (stereo not shown) [Example 4a, 1-(4-((4-Chloro-2-methoxy-3-((tetrahydro-2H-pyran-4-yl)methyl)quinolin-6-yl)(hydroxy)(phenyl)methyl)piperidin-1-yl)ethanone]: in assay [2], the IC50 was more than 6 µM and the inhibition at 6 µM amounted to 24%. Moreover, the Kd in assay [3] (setting [4]) is 0.016 µM.
On to `COc1nc2ccc([C@](O)(c3ccccc3)C3CCN(C(C)=O)CC3)cc2c(Cl)c1CC1CCOCC1` [Example 4c], for which, in assay [2], the IC50 was more than 6 µM and the “RORγt (LBD) Reporter Assay, % inhibition @ 6 μM” value is −6%. Moreover, the Kd in assay [3] (setting [4]) worked out at 0.053 µM.
As to `COc1nc2ccc(C(O)(c3cncn3C)C3CCN(S(C)(=O)=O)CC3)cc2c(Cl)c1CC1CCOCC1` (stereo not shown) [Example 6a, (4-Chloro-2-methoxy-3-((tetrahydro-2H-pyran-4-yl)methyl)quinolin-6-yl)(1-methyl-1H-imidazol-5-yl)(1-(methylsulfonyl)piperidin-4-yl)methanol], in assay [2], the IC50 is more than 6 µM and the inhibition at 6 µM is 26%. Also, the Kd in assay [3] (setting [4]) is 0.22 µM.
Take `CC(=O)N1CCC(C(O)(c2ccc3nc(C(F)(F)F)c(C(=O)N4CCCCC4)c(C(F)(F)F)c3c2)c2cncn2C)CC1` (stereo not shown) [Example 9, 1-(4-(Hydroxy(1-methyl-1H-imidazol-5-yl)(3-(piperidine-1-carbonyl)-2,4-bis(trifluoromethyl)quinolin-6-yl)methyl)piperidin-1-yl)ethanone]: in assay [2], the IC50 is more than 6 µM and the inhibition at 6 µM was 16%. Besides, in assay [3] (setting [4]), the Kd was 8.2 µM.
For the molecule `Cc1c(-c2ccc3c(cnn3C)c2)nc2ccc(C(O)(c3cccnc3)c3cccc(Cl)c3)cc2c1Cl` (stereo not shown) [Example 24, [4-Chloro-3-methyl-2-(1-methyl-1H-indazol-5-yl)quinolin-6-yl](3-chlorophenyl)pyridin-3-ylmethanol], in assay [2], the IC50 is more than 6 µM and the inhibition at 6 µM stood at 29%. In addition, the Kd in assay [3] (setting [4]) was determined as 2 µM.
With `Cn1cncc1C(O)(c1ccc(C(F)(F)F)nc1)c1ccc2nc(N3CCC3)c(OCc3ccccc3)c(Cl)c2c1` (stereo not shown) [Example 31, [2-Azetidin-1-yl-3-(benzyloxy)-4-chloroquinolin-6-yl](1-methyl-1H-imidazol-5-yl)[6-(trifluoromethyl)pyridin-3-yl]methanol.TFA], in assay [2], the IC50 was more than 6 µM and the inhibition at 6 µM is -32%. For the same molecule, in assay [3] (setting [4]), the Kd came to 0.027 µM.
Take `COc1nc2ccc(C(O)(c3ccc(C(F)(F)F)nc3)c3cncn3C)cc2c(Cl)c1CCC1CCN(C(C)=O)CC1` (stereo not shown) [Example 32, {3-[2-(1-Acetylpiperidin-4-yl)ethyl]-4-chloro-2-methoxyquinolin-6-yl}(1-methyl-1H-imidazol-5-yl)[6-(trifluoromethyl)pyridin-3-yl]methanol]: in assay [2], the IC50 was more than 6 µM and the inhibition at 6 µM was 32%. Also, the equilibrium dissociation constant (Kd) in assay [3] (setting [4]) turned out to be 0.039 µM.
`COc1nc2ccc(C(O)(c3ccc(C(F)(F)F)nc3)c3cncn3C)cc2c(Cl)c1C1=CCN(C)CC1` (stereo not shown) [Example 33, [4-Chloro-2-methoxy-3-(1-methyl-1,2,3,6-tetrahydropyridin-4-yl)quinolin-6-yl](1-methyl-1H-imidazol-5-yl)[6-(trifluoromethyl)pyridin-3-yl]methanol.TFA]: in assay [2], the half-inhibitory concentration (IC50) is more than 6 µM and the inhibition at 6 µM is -32%. Also, the dissociation constant Kd in assay [3] (setting [4]) is 4.8 µM.
As for `COc1nc2ccc(C(O)(c3ccc(C)nc3C)c3cnnn3C)cc2c(Cl)c1OCCS(C)(=O)=O` (stereo not shown) [Example 70a, {4-Chloro-2-methoxy-3-[2-(methylsulfonyl)ethoxy]quinolin-6-yl}(2,6-dimethylpyridin-3-yl)(1-methyl-1H-1,2,3-triazol-5-yl)methanol], in assay [2], the IC50 is more than 6 µM and the inhibition at 6 µM was found to be 36%. Besides, the Kd in assay [3] (setting [4]) amounted to 3.3 µM.
Take `COc1nc2ccc(C(O)(c3cnc(C)n3C)c3cnc(C)n3C)cc2c(Cl)c1OCc1ccccc1` [Example 75, [3-(benzyloxy)-4-chloro-2-methoxyquinolin-6-yl][bis(1,2-dimethyl-1H-imidazol-5-yl)]methanol]: in assay [2], the IC50 was more than 6 µM and the inhibition at 6 µM is -1%. Further, the Kd in assay [3] (setting [4]) is 0.009 µM.
On to `COc1nc2ccc(C(O)c3cnc(C)n3C)cc2c(Cl)c1OC(C)C` (stereo not shown) [Example 156, (4-chloro-3-isopropoxy-2-methoxyquinolin-6-yl)(1,2-dimethyl-1H-imidazol-5-yl)methanol], for which, in assay [2], the IC50 was more than 6 µM and the “RORγt (LBD) Reporter Assay, % inhibition” value worked out at 34%. The dissociation constant Kd in assay [3] (setting [5]) turned out to be 3.4 µM.
For the molecule `Cc1ncc(C(O)c2ccc3nc(Cl)c(OC(C)C)c(Cl)c3c2)n1C` (stereo not shown) [Example 172, (2,4-dichloro-3-isopropoxyquinolin-6-yl)(1,2-dimethyl-1H-imidazol-5-yl)methanol], in assay [2], the IC50 was more than 6 µM and the “RORγt (LBD) Reporter Assay, % inhibition” value stood at 12%. In addition, the Kd in assay [3] (setting [5]) amounted to 12 µM.
The corresponding values for `Cc1ccc(C(O)(c2ccc3nc(Cl)c(CC(F)(F)F)c(N4CCC4)c3c2)c2cnnn2C)c(C)n1` (stereo not shown) [Example 238a, [4-(Azetidin-1-yl)-2-chloro-3-(2,2,2-trifluoroethyl)-6-quinolyl]-(2,6-dimethyl-3-pyridyl)-(3-methyltriazol-4-yl)methanol] are more than 6 µM, −8% and more than 24 µM.
